Measurements as given in US4289883A, “Carbostyril compounds” (Otsuka Pharmaceutical Co., Ltd., priority 1976, dated 1981).
Like-named read-outs stand apart in the source and are kept apart here.

Experiments:
[1] = acute toxicity (LD50), i.v. and p.o.; design: species or system rats; settings: rat, in vivo
Protocol: Further, the acute toxicity of the compounds of the present invention having the formula (I) was determined by intravenous administration (i.v.) and oral administration (p.o.) in 5 to 6 group of rats (dd, strain; body weight, 18 to 22 g; 10 rats in each group) which have been fasted for 12 hours prior to the test.

β-adrenoreceptor = experiment: β-adrenergic blocking activity in anesthetized dogs (antagonism to isoprenaline effects on heart rate, diastolic blood pressure and air-way resistance); format: in vivo; settings: 10 minutes after i.v. test compound 300 μg/kg; for Inhibition (%) dBP (Diastolic Blood Pressure): antagonism to isoprenaline (1 μg/kg i.v.) induced depression of diastolic blood pressure; for Inhibition (%) dBP (Diastolic Blood Pressure) / Inhibition (%) AR (AirWay Resistance): dogs; for Inhibition (%) HR (Heart Rate): antagonism to isoprenaline (1 μg/kg i.v.) induced increase in heart rate, male hybrid adult dogs; for Inhibition (%) AR (AirWay Resistance): antagonism to isoprenaline depression of histamine (5 μg/kg i.v.) induced increase of air-way resistance
Protocol: The β-adrenergic blocking activity of the compounds of this invention was determined as follows:
Male hybrid adult dogs, weighing 10 to 16 kg, were anesthesized with sodium pentobarbital administered intravenously at a level of 30 mg/kg of body weight, and a cannula was inserted into the trachea of each of the anesthesized dogs. In order to avoid blood coagulation, heparin was administered intravenously at a level of 1000 units and thereafter a cannula was inserted into the right femoral artery. The experiments were conducted under artificial respiration at a rate of 20 ml/kg, 18 r.p.m.
The above parameters were continuously recorded on a polygraph (8S 28 Type, tradename of Sanei Sokki Co., Japan). During the experiment, gallamine was administered intravenously at a dosage of 3 mg/kg at one-hour intervals to avoid fluctuation of air-way resistance.
The β-adrenergic blocking activity of each of the test compounds was evaluated in terms of antagonism (Inhibition %) to the depression at the diastolic blood pressure (dBP) and to the increase in the heart rate induced by the intravenous administration of isoprenaline (1 μg/kg) and in terms of antagonism (Inhibition %) to the depression by isoprenaline in increase of air-way resistance which was induced by intravenous administration of histamine (5 μg/kg). In this case, histamine was administered 45 seconds after the administration of isoprenaline.

SMILES	LD50 ([1]; iv, Rats (Female), read-out: LD50 (50% lethal dose) i.v.)	LD50 ([1]; iv, Rats (Male), read-out: LD50 (50% lethal dose) i.v.)	LD50 ([1]; po, Rats (Female), read-out: LD50 (50% lethal dose) p.o.)	LD50 ([1]; po, Rats (Male), read-out: LD50 (50% lethal dose) p.o.)	Inhibition (%) dBP (Diastolic Blood Pressure) (β-adrenoreceptor)	Inhibition (%) HR (Heart Rate) (β-adrenoreceptor)	Inhibition (%) AR (AirWay Resistance) (β-adrenoreceptor)
COCCOc1ccc(OCC(O)CNCCc2ccc(OC)c(OC)c2)c2c1NC(=O)CC2.O=C(O)/C=C\C(=O)O (stereo not drawn) [8-(2-methoxyethoxy)-5-[3-(3,4-dimethoxyphenethylamino)-2-hydroxypropoxy]-3,4-dihydrocarbostyril maleate]	160 mg/kg	185 mg/kg	1450 mg/kg	1550 mg/kg			
CC(C)NCC(O)COc1ccc(CC(N)=O)cc1 (stereo not drawn) [Atenolol, reference compound]					26.9%	52.3%	9.8%
CC(C)(C)NCC(O)COc1cccc2c1CCC(=O)N2 (stereo not drawn) [Comparison Compound 1, reference compound]					100%	100%	100%
COc1ccc(CCNCC(O)COc2cccc3c2CCC(=O)N3)cc1OC (stereo not drawn) [Comparison Compound 2, reference compound]					65.6%	87.2%	79.1%
CC(C)(C)NCC(O)COc1ccc(O)c2c1CCC(=O)N2 (stereo not drawn) [Prior Art Compound 1, reference compound]					100%	100%	100%
COc1ccc(OCC(O)CNC(C)(C)C)c2c1NC(=O)CC2 (stereo not drawn) [Prior Art Compound 2, reference compound]					83.7%	82.1%	80.2%
CC(C)(C)NCC(O)COc1ccc(OCc2ccccc2)c2c1CCC(=O)N2 (stereo not drawn) [Prior Art Compound 3, reference compound]					10.2%	71.3%	67.8%
COCCOc1ccc(OCC(O)CNCCc2ccc(OC)c(OC)c2)c2c1NC(=O)CC2 (stereo not drawn) [Sample 1]					28.3%	45.5%	25.0%
C=CCOc1ccc(OCC(O)CNCCc2ccc(OC)c(OC)c2)c2c1NC(=O)CC2 (stereo not drawn) [Sample 2]					23.5%	50.2%	24.5%
C#CCOc1ccc(OCC(O)CNCCc2ccc(OC)c(OC)c2)c2c1NC(=O)CC2 (stereo not drawn) [Sample 3]					39.5%	57.6%	14.0%
COc1ccc(CCNCC(O)COc2ccc(OCC(C)=O)c3c2CCC(=O)N3)cc1OC (stereo not drawn) [Sample 4]					15.1%	44.6%	2.7%
C#CCOc1ccc(OCC(O)CNCC=C)c2c1NC(=O)CC2 (stereo not drawn) [Sample 5]					35.0%	50.5%	24.3%
C#CCOc1ccc(OCC(O)CNC(C)(C)C)c2c1NC(=O)CC2 (stereo not drawn) [Sample 6]					94.5%	100%	47.6%
C#CCOc1ccc(OCC(O)CNC(c2ccccc2)c2ccccc2)c2c1NC(=O)CC2 (stereo not drawn) [Sample 7]					20.5%	18.4%	8.0%
COc1ccc(CCNCC(O)COc2ccc(OCCO)c3c2CCC(=O)N3)cc1OC (stereo not drawn) [Sample 8]					16.8%	26.3%	8.1%
C#CCOc1ccc(OCC(O)CNC(C)(C)Cc2ccccc2)c2c1NC(=O)CC2 (stereo not drawn) [Sample 9]					75.7%	61.7%	41.3%
C=CCOc1ccc(OCC(O)CNCC(c2ccccc2)c2ccccc2)c2c1NC(=O)CC2 (stereo not drawn) [Sample 10]					20.4%	25.8%	3.5%
COc1ccc(CCNCC(O)COc2ccc(OCC(=O)O)c3c2CCC(=O)N3)cc1OC (stereo not drawn) [Sample 11]					47.1%	50.0%	9.4%
COc1ccc(CCNCC(O)COc2ccc(OCC(N)=O)c3c2CCC(=O)N3)cc1OC (stereo not drawn) [Sample 12]					44.2%	57.9%	15.2%
CC(=O)Oc1ccc(OCC(O)CNC(C)(C)C)c2c1N(Cc1ccccc1)C(=O)CC2 (stereo not drawn) [Sample 13]					77.5%	85.2%	59.3%
CC(C)NCC(O)COc1ccc(OC(=O)C2CCCCC2)c2c1CCC(=O)N2 (stereo not drawn) [Sample 14]					36.3%	43.2%	27.6%
CCOC(=O)COc1ccc(OCC(O)CNCCc2ccc(OC)c(OC)c2)c2c1NC(=O)CC2 (stereo not drawn) [Sample 15]					8.5%	10.2%	2.7%
C#CCOc1ccc(OCC(O)CNCCc2ccc(OC)c(OC)c2)c2ccc(=O)[nH]c12 (stereo not drawn) [Sample 16]					40.9%	55.3%	13.7%
COCCOc1ccc(OCC(O)CNC(C)C)c2c1NC(=O)CC2 (stereo not drawn) [Sample 17]					34.1%	41.8%	9.7%
C=CCOc1ccc(OCC(O)CNC(C)(C)C)c2c1NC(=O)CC2.Cl (stereo not drawn) [Sample 18, 8-allyloxy-5-(3-t-butylamino-2-hydroxypropoxy)-3,4-dihydrocarbostyril hydrochloride]					100%	34.6%	0%
COc1ccc(CCNCC(O)COc2ccc(OCC(=O)O)c3c2CCC(=O)N3)cc1OC (stereo not drawn) [Sample 19]						50.0%	9.4%
COCCOc1ccc(OCC(O)CNCCOc2ccc(OC)cc2)c2c1NC(=O)CC2 (stereo not drawn) [Sample 20]					18.1%	23.7%	8.3%
C#CCOc1ccc(OCC(O)CNC2CCCCC2)c2c1NC(=O)CC2 (stereo not drawn) [Sample 21]					22.0%	17.3%	8.3%
